Laboratory results from ChEMBL document CHEMBL5390225, “Discovery and structural optimization of a new series of N-acyl-2-aminobenzothiazole as inhibitors of Zika virus” (Bioorg Med Chem, 2023).

Columns and labels:
[1] = Cytotoxicity against African green monkey Vero E6 cells assessed as cell viability at 2 uM measured after 72 hrs by MTT assay relative to control; format: toxicity, cell-based, Vero C1008; conditions: chlorocebus sabaeus, read-out: Activity
[2] = Cytotoxicity against African green monkey Vero E6 cells assessed as cell viability at 10 uM measured after 72 hrs by MTT assay relative to control; format: toxicity, cell-based, Vero C1008; conditions: chlorocebus sabaeus, read-out: Activity
[3] = target: Nonstructural protein 3 (Zika virus, UniProt A0A024AXB9); assay: Inhibition of N-terminal His-tagged Zika virus NS2B protease (46 to 99 residues)/NS3 protease (1 to 187 residues) expressed in Escherichia coli Rosetta2(DE3) cells using Boc-Gly-Arg-Arg-AMC as substrate preincubated with enzyme for 10 mins followed by substrate addition and measured for 10 mins by fluorescence based analysis
[4] = tested on: Zika virus; assay: Antiviral activity against Zika virus infected in golden hamster BHK21-RepZIKV_IRES-Neo cells assessed as inhibition of viral replication by measuring reduction in renilla luciferase expression at 10 uM measured after 72 hrs by luciferase reporter gene assay relative to control; format: functional, Mesocricetus auratus; conditions: BHK-21
[5] = tested on: Zika virus; assay: Antiviral activity against Zika virus PE243 infected in African green monkey Vero E6 cells assessed as inhibition of viral replication at 10 uM incubated for 72 hrs by immunofluorescence analysis; format: functional; conditions: PE243, Vero C1008
[6] = tested on: BHK-21; assay: Cytotoxicity against golden hamster BHK21-RepZIKV_IRES-Neo cells assessed as reduction in cell viability measured after 72 hrs by MTT assay; format: toxicity, cell-based, Mesocricetus auratus; conditions: bhk-21, 72 h
[7] = tested on: Zika virus; assay: (§1) Inhibition of Zika virus BeH823339 NS2B protease (49 to 95 residues) R96A mutant/NS3 protease (1 to 170 residues) R29G/ C80S/C143S mutant expressed in Escherichia coli BL21 (DE3) cells using Bz-Nle-Lys-Lys-Arg-AMC as a fluorogenic substrate at 100 uM by fluorescence-based analysis relative to control
[8] = tested on: Zika virus; assay: as §1, with “uM preincubated with enzyme for 10 mins” for “uM”
[9] = tested on: Zika virus; assay: Antiviral activity against Zika virus PE243 infected in African green monkey Vero E6 cells assessed as inhibition of viral replication incubated for 72 hrs by immunofluorescence analysis; format: functional, organism-based; conditions: PE243, Vero C1008, 72 h
[10] = Cytotoxicity against African green monkey Vero E6 cells assessed as reduction in cell viability measured after 72 hrs by MTT assay; format: toxicity, cell-based, Vero C1008; conditions: chlorocebus sabaeus
[11] = Selectivity index, ratio of CC50 for cytotoxicity against African green monkey Vero E6 cells to EC50 for antiviral activity against Zika virus PE243 infected in African green monkey Vero E6 cells; format: toxicity, cell-based, Vero C1008; conditions: read-out: Ratio CC50/EC50
[12] = tested on: Zika virus; assay: Antiviral activity against Zika virus PE243 infected in African green monkey Vero E6 cells assessed as inhibition of viral replication at 2 uM incubated for 72 hrs by immunofluorescence analysis; format: functional; conditions: PE243, Vero C1008

Nonstructural protein 3, sequence (A0A024AXB9 whole entry, the tested form may be a part): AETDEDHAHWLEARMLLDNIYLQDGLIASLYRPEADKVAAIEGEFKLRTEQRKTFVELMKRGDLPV

`COc1ccc(S(=O)(=O)Nc2ccc(C(=O)Nc3nc4ccccc4s3)cc2)cc1` gave a viability at 72 h, 2 µM [1] of 88.7%, a viability at 72 h, 10 µM [2] of 94.8% and an IC50 [3] of 5.2 µM. For the same molecule, the inhibition at 10 µM [4] was 63.4%, the inhibition at 10 µM [5] was 74.4% and the Activity [6] was “Non-Toxic”. The inhibition [7] was 38%, the inhibition [8] was 32% and the EC50 [9] was 11.1 µM. It also gave a CC50 at 72 h [10] of 13.3 µM, a selectivity ratio [11] of 1.2 and an inhibition at 2 µM [12] of 10.8%.
